Measurements: US9957173B2, “Treatment of water” (BWA WATER ADDITIVES UK LIMITED, priority 2015, dated 2018)

Assays:
Desulfovibrio vulgaris = assay: Log10 reduction in viable count of anaerobes after treatment of inoculated high-TDS aqueous system; type: cell-based; conditions: for Log10 Reduction Anaerobes: TDS 30,000 mg l^−1, 5 = complete kill
Protocol: (§1) Aqueous systems inoculated with anaerobe and facultative anaerobe culture and having a total dissolved solids (TDS) concentration of 30,000 mg l^−1 were prepared and treated with treatment agents comprising: (a) a phosphonium compound and (b) a nitro compound. The phosphonium compound (a) used was tri n-butyl n-tetradecyl phosphonium chloride (TTPC). The nitro compound (b) used was 2-hydroxymethyl-2-nitro-1,3-propanediol (THNM).
(§2) A suspension of Desulfovibrio vulgaris plus Enterobacter aerogenes bacteria containing from 1×10^5 to 1×10^6 cells/mL was prepared in sterile pH 8 phosphate buffer containing sodium chloride to give the desired total dissolved solids (TDS) concentration. Aliquots of this suspension were dosed with the indicated concentrations of the compounds (a) and (b) with the concentrations being measured as ppm. The mixtures were allowed to stand at room temperature. At the designated contact times, each mixture was sampled to determine the total number of viable cells of both Desulfovibrio vulgaris and Enterobacter aerogenes by serial 10-fold dilution into API RP 38 media vials and anaerobic acid producing media vials, respectively. The vials were incubated at 37° C. for 72 hours. Results were recorded as log10 reduction in the viable count versus the control.
(§3) The efficacy of the treatment agents was evaluated by measuring the Log10 Reduction of the anaerobic bacterium Desulfovibrio vulgaris and the facultative anaerobic bacterium Enterobacter aerogenes after contact times of 1 hour, 4 hours and 24 hours as detailed in Table 1. For TTPC the stated ppm value relates to the amount of TTPC added (active). For the THNM the stated ppm relates to the amount of THNM added (active).

Enterobacter aerogenes = assay: Log10 reduction in viable count of facultative anaerobes after treatment of inoculated high-TDS aqueous system; type: cell-based; conditions: for Log10 Reduction Facultative Anaerobes: TDS 30,000 mg l^−1, 8 = complete kill
Protocol: as §1, §2, §3

[1] = Example 3: THNM 75 ppm active alone, contact time 1 hour
[2] = Example 4: THNM 150 ppm active alone, contact time 1 hour
[3] = Example 11: THNM 75 ppm active alone, contact time 4 hours
[4] = Example 12: THNM 150 ppm active alone, contact time 4 hours
[5] = Example 19: THNM 75 ppm active alone, contact time 24 hours
[6] = Example 20: THNM 150 ppm active alone, contact time 24 hours
[7] = THNM alone, even at concentrations of 150 ppm
[8] = Example 1: TTPC 3.125 ppm active alone, contact time 1 hour
[9] = Example 2: TTPC 6.25 ppm active alone, contact time 1 hour
[10] = Example 9: TTPC 3.125 ppm active alone, contact time 4 hours
[11] = Example 10: TTPC 6.25 ppm active alone, contact time 4 hours
[12] = Example 17: TTPC 3.125 ppm active alone, contact time 24 hours
[13] = Example 18: TTPC 6.25 ppm active alone, contact time 24 hours

O=[N+]([O-])C(CO)(CO)CO [THNM, 2-hydroxymethyl-2-nitro-1,3-propanediol]
Log10 Reduction Anaerobes (Desulfovibrio vulgaris; [1]): 0
Log10 Reduction Anaerobes (Desulfovibrio vulgaris; [2]): 0
Log10 Reduction Anaerobes (Desulfovibrio vulgaris; [3]): 0
Log10 Reduction Anaerobes (Desulfovibrio vulgaris; [4]): 0
Log10 Reduction Anaerobes (Desulfovibrio vulgaris; [5]): 0
Log10 Reduction Anaerobes (Desulfovibrio vulgaris; [6]): 0
effect on anaerobes (Desulfovibrio vulgaris; [7]): no affect
Log10 Reduction Facultative Anaerobes (Enterobacter aerogenes; [1]): 0
Log10 Reduction Facultative Anaerobes (Enterobacter aerogenes; [2]): 0
Log10 Reduction Facultative Anaerobes (Enterobacter aerogenes; [3]): 0
Log10 Reduction Facultative Anaerobes (Enterobacter aerogenes; [4]): 0
Log10 Reduction Facultative Anaerobes (Enterobacter aerogenes; [5]): 0
Log10 Reduction Facultative Anaerobes (Enterobacter aerogenes; [6]): 0
effect on facultative anaerobes (Enterobacter aerogenes; [7]): no affect

CCCCCCCCCCCCCC[P+](CCCC)(CCCC)CCCC.[Cl-] [TTPC, tri n-butyl n-tetradecyl phosphonium chloride]
Log10 Reduction Anaerobes (Desulfovibrio vulgaris; [8]): 0
Log10 Reduction Anaerobes (Desulfovibrio vulgaris; [9]): 1
Log10 Reduction Anaerobes (Desulfovibrio vulgaris; [10]): 5
Log10 Reduction Anaerobes (Desulfovibrio vulgaris; [11]): 5
Log10 Reduction Anaerobes (Desulfovibrio vulgaris; [12]): 5
Log10 Reduction Anaerobes (Desulfovibrio vulgaris; [13]): 5
Log10 Reduction Facultative Anaerobes (Enterobacter aerogenes; [8]): 1
Log10 Reduction Facultative Anaerobes (Enterobacter aerogenes; [9]): 3
Log10 Reduction Facultative Anaerobes (Enterobacter aerogenes; [10]): 2
Log10 Reduction Facultative Anaerobes (Enterobacter aerogenes; [11]): 4
Log10 Reduction Facultative Anaerobes (Enterobacter aerogenes; [12]): 3
Log10 Reduction Facultative Anaerobes (Enterobacter aerogenes; [13]): 5
